Entries after “also recorded” stand apart in the source; their conditions may differ.

For assay [1], the system named is spinal rats. As to the kind of experiment: Stepping patterns enabled by EES in spinal rats (complete T7 transection, bipedal treadmill). It counts as in vivo, rat. The following applies: for locomotion / stepping enabled by EES: treadmill 13 cm/s, clonidine 0.4-0.5 mg/kg, BRL-44408 given 5 min before clonidine in the combination. How it is done:
Link R E, Desai K, Hein L, Stevens M E, Chruscinski A, Bernstein D, Barsh G S, Kobilka B K. Science. 1996 Aug. 9; 273(5276):803-5).
All procedures have been described in detail previously (see above, Courtine et al., 2009). Briefly, under general anesthesia and aseptic conditions, a partial laminectomy was performed over spinal segments L2 and S1. Teflon-coated stainless-steel wires (AS632; Cooner Wire) were passed under the spinous processes and above the dura mater of the remaining vertebrae between the partial laminectomy sites.
Bipolar intramuscular EMG electrodes using the same wire type as above were inserted bilaterally in the midbelly of the tibialis anterior (TA), midbelly of the vastus lateralis (VL), distal deep compartment of the semitendinosus (St), and medial deep region of the medial gastrocnemius (MG) muscles. All electrode wires were connected to a percutaneous amphenol connector cemented to the rat skull. In the same surgical intervention, the spinal cord was transected completely at a midthoracic level (T7) (Courtine et al., 2009).
All experimental testing followed the same protocol.
In KO mice experiments, only clonidine was injected intraperitoneally.
Three-dimensional video recordings (200 Hz) were made using the motion capture system VICON. Eight infrared television cameras (200 Hz) were used to track the motion of reflective markers attached bilaterally at the iliac crest, greater trochanter, lateral condyle, lateral malleolus, distal end of the fifth metatarsal [metatarsophalangeal joint (MTP)], and tip of the toe (FIG. 1A). Nexus (Vicon) was used to obtain 3-D coordinates of the markers. The body was modeled as an interconnected chain of rigid segments, and joint angles were generated accordingly.
Moments and ground reaction forces in the vertical, antero-posterior, and mediolateral directions were monitored using a biomechanical force plate (2 kHz; HE6X6; AMTI) located below the treadmill belt (FIG. 1A). Vicon BodyBuilder (Vicon) was used to compute the displacements of the center of foot pressures.
EMG signals (2 kHz) were amplified, filtered (10-1000 Hz bandpass), stored, and analyzed off-line to compute the amplitude, duration, and timing of individual bursts (Courtine et al., 2009).
Ten successive step cycles were extracted for both the left and right hindlimbs from a continuous sequence of stepping on the treadmill for each animal under each condition. When no stepping movements were observed, a 10 s period was recorded and analyzed. A total of 129 parameters quantifying gait, kinematics, kinetics, and EMG features were computed for each limb and gait cycle according to methods described in detail previously (Kinematic and EMG determinants in quadrupedal locomotion of a non-human primate (Rhesus). Courtine G, Roy R R, Hodgson J, McKay H, Raven J, Zhong H, Yang H, Tuszynski M H, Edgerton V R. J Neurophysiol. 2005 June; 93(6):3127-45; Recovery of supraspinal control of stepping via indirect propriospinal relay connections after spinal cord injury. Courtine G, Song B, Roy R R, Zhong H, Herrmann J E, Ao Y, Qi J, Edgerton V R, Sofroniew M V. Nat Med. 2008 January; 14(1):69-74; Transformation of nonfunctional spinal circuits into functional states after the loss of brain input. Courtine G, Gerasimenko Y, van den Brand R, Yew A, Musienko P, Zhong H, Song B, Ao Y, Ichiyama R M, Lavrov I, Roy R R, Sofroniew M V, Edgerton V R. Nat Neurosci. 2009 October; 12(10): 1333-42).
These parameters provided a holistic quantification of locomotor patterns ranging from general features of gait to fine details of limb motions and coordination. To allow direct comparisons between the different experimental conditions, all computed variables were normalized to those measured before drug injection (i.e., during locomotion facilitated by dual-site EES alone).
All data are reported as mean values±SEM. Repeated-measures ANOVAs were used to test differences between locomotor parameters recorded before and after drug injections […]

The subject of assay [2] is α2a KO mice. The following applies: spinal α2a KO mice, EES, clonidine i.p. How it is done: (§1) The experiments in rats were conducted on adult female Sprague Dawley (300 g body weight). Functional testings in mice were carried out in α2a and α2c knockout animals aged 3-5 months, from both gender, obtained from L. Hein (University of Freiburg, Germany). The generation of the mouse lines lacking α2-adrenoreceptor subtypes has been previously described in detail (Abnormal regulation of the sympathetic nervous system in alpha2A-adrenergic receptor knockout mice. Altman J D, Trendelenburg A U, MacMillan L, Bernstein D, Limbird L, Starke K, Kobilka B K, Hein L. Mol Pharmacol. 1999 July; 56(1):154-61; Targeted inactivation of the gene encoding the mouse alpha 2c-adrenoceptor homolog. Link R E, Stevens M S, Kulatunga M, Scheinin M, Barsh G S, Kobilka B K. Mol Pharmacol. 1995 July; 48(1):48-55; Cardiovascular regulation in mice lacking alpha2-adrenergic receptor subtypes b and c. Link R E, Desai K, Hein L, Stevens M E, Chruscinski A, Bernstein D, Barsh G S, Kobilka B K. Science. 1996 Aug. 9; 273(5276):803-5). To investigate the spinal distribution of the α2 subtypes, we used BAC transgenic mice expressing the reporter protein GFP upstream the coding sequence of the α2a or α2c receptor subtype (strains 014248-UCD and 030098-UCD MMRRC, USA). All procedures were approved by the Veterinary Office of the Canton of Vaud, Switzerland. Animals were housed individually on a 12 h light/dark cycle, with access to food and water ad libitum.
(§2) All tested animals were allowed to recover for 2-5 weeks after lesion to regain stable levels of excitability in the spinal networks to facilitate locomotion via EES (Epidural stimulation induced modulation of spinal locomotor networks in adult spinal rats. Lavrov I, Dy C J, Fong A J, Gerasimenko Y, Courtine G, Zhong H, Roy R R, Edgerton V R. J Neurosci. 2008). An upper body harness was used to position the rats over a treadmill belt and to partially support their body weight during bipedal locomotion (FIG. 1A). An automated, servocontrolled body weight support system (Robomedica) measured and provided the optimal amount of body weight support that each rat needed to step. To facilitate locomotion via EES, monopolar rectangular pulses (0.2 ms duration) were delivered at 40 Hz using two constant-current stimulators (AM Systems) connected to the electrodes positioned at L2 and S1.

In assay [3] the test system is α2c KO mice. The following applies: spinal α2c KO mice, EES, clonidine i.p. How it is done: as §1, §2
Assay [4] deals with cats with a complete spinal cord injury. The following applies: spinal / spinalized cats, complete SCI; cited from earlier work.
Assay [5] concerns humans with a severe spinal cord injury. The following applies: cited from earlier work.
For assay [6], the system named is rats with complete SCI. The following applies: rats with complete SCI (Musienko et al. 2011); cited from earlier work.
A short description of assay [7]: 8-OHDPAT in combination with α2c stimulation and/or α2a blocking, locomotion. It is filed as in vivo. The following applies: 8-OHDPAT in combination with the α2c stimulation or the α2a blocking or both.
Where [8] appears, read: 5 weeks after lesion, with EES, i.p., BRL-44408 4-5 mg/kg.
Setting [9] is: 2 weeks after lesion, 200 umol/kg, together with EES.
Where [10] appears, read: 5 weeks after lesion, with EES, i.p., BRL-44408 4-5 mg/kg, clonidine 0.4 mg/kg.

As for `Clc1cccc(Cl)c1N=C1NCCN1` [clonidine], in assay [1] (setting [8]), the “locomotion / stepping enabled by EES” value is listed as “abolished the stepping enabled by EES”. Moreover, in assay [2], the locomotor function result is recorded as “triggered a facilitation of the locomotor function”, the locomotor stability entry is on record as “improvement of locomotor stability” and the “movement magnitudes of the hindlimb joints” value is “increase of the movement magnitudes of the hindlimb joints”. In addition, the locomotor abilities result in assay [3] is recorded as “significant blocking of the locomotor abilities”. The locomotion entry in assay [4] was “marked facilitation of locomotion”. The locomotion entry in assay [5] (human, clonidine injections (Dietz et al. 1995)) is on record as “dysfacilitated locomotion”. For the same molecule, the “locomotor EMG activity” value in assay [5] (humans with a severe spinal cord injury, low clonidine dosages (Dietz et al., 1995)) was “suppress or markedly reduce locomotor EMG activity”. Moreover, in assay [6], the stepping result was “abolished stepping”.
Turning to `NC1=N[C@@H](Cc2c(F)cccc2F)CO1` [formula (I)], the locomotion result in assay [1] (2 weeks after lesion, 200 umol/kg, effect exclusively when applied together with spinal cord stimulation (EES)) is on record as “significantly improved locomotion”. Also, in assay [1] (setting [9]), the limb amplitude entry is given as “increased the limb amplitude” and the paw dragging result is given as “reduced the paw dragging”.
For `Clc1ccc2nsnc2c1NC1=NCCN1` [tizanidine], the locomotion result in assay [4] is recorded as “facilitated expression of locomotion”.
For `CCCN(CCC)C1CCc2cccc(O)c2C1` (centres unmarked) [8-OHDPAT], in assay [7], the locomotion result is “further facilitation of locomotion”.
With `CC1c2ccccc2CN1CC1=NCCN1` (centres unmarked) [BRL-44408, 2-[(4,5-Dihydro-1H-imidazol-2-yl)methyl]-2,3-dihydro-1-methyl-1H-isoindole], the “locomotion / stepping enabled by EES” value in assay [1] (setting [8]) is recorded as “improved locomotion; also recorded: moderately improves locomotion”. Also, in assay [1] (setting [10]), the paw dragging entry is on record as “reduced paw dragging” and the step height result is “substantially improved the step height”.

Source of the values: US10632105B2, “Pharmacological stimulation to facilitate and restore standing and walking functions in spinal cord motor disorders” (ECOLE POLYTECHNIQUE FEDERALE DE LAUSANNE (EPFL), priority 2013, dated 2020).
